Test results published in patent US20250222116A1, “PARP-1 DEGRADATION AGENT AND USE THEREOF” (XIZANG HAISCO PHARMACEUTICAL CO., LTD., priority 2021, published 2025).

Columns and labels:
[1] = Pharmacokinetic test in rats; type: in vivo, SD rats
Method: 7.1 Experimental animals: male SD rats, about 220 g, 6-8 weeks old, 6 rats/compound, purchased from Chengdu Ddossy Experimental Animals Co., Ltd.
7.2 Experimental design: on the day of the experiment, 12 SD rats were randomly grouped according to their body weights. The animals were fasted with water available for 12 to 14 h one day before the administration, and were fed 4 h after the administration.
Before and after the administration, 0.15 mL of blood was taken from the orbit of the animals under isoflurane anesthesia and placed in an EDTAK2 centrifuge tube. The blood was centrifuged at 5000 rpm and 4° C. for 10 min to collect plasma. The blood collection time points for the intravenous administration group and intragastric administration group were: 0, 5 min, 15 min, 30 min, 1 h, 2 h, 4 h, 6 h, 8 h, and 24 h. Before analysis and detection, all samples were stored at −80° C. The samples were analyzed quantitatively by LC-MS/MS.

PARP1 [2] = molecular target: T1, PARP1 (Homo sapiens (Human), UniProt P09874); experiment: PARP1 enzyme activity inhibition (chemiluminescence kit); type: biochemical
Method: PARP1, PARP2 and PARP7 chemical […] detection kits were all purchased from BPS Bioscience. The histone solution in the kit was diluted 5× with 1×PBS, and 25 μL of the diluted histone solution was added to a microwell plate and incubated overnight at 4° C. After the incubation was completed, the plate was washed three times with PBST (0.05% Tween-20). 25 μL of a blocking solution was added to the microwell plate and incubated at 25° C. for 90 minutes. After the incubation was completed, the plate was washed three times with PBST. 2.5 μL of compounds at different concentrations diluted in test buffer and 5 μL of 2.5× substrate mixed solution were added to the microwell plate. PARP1, PARP2 and PARP7 enzymes were diluted to 0.33, 0.23 and 5.00 ng/μL, respectively, 5 μL of the diluent was added to the microwell plate, and the reaction system was incubated at 25° C. for 60 minutes. After the incubation was completed, the plate was washed three times with PBST. […] ELISA ECL substrate A and substrate B were mixed at a ratio of 1:1 (v/v), 25 μL of the mixture was added to the microwell plate, and the chemiluminescence value was read using a BMG microplate reader.
Curve fitting was performed by four parameters (log(inhibitor) vs. response−Variable slope) using GraphPad Prism software, and the IC50 value was calculated.

PARP1 [3] = molecular target: T1, PARP1; experiment: PARP1 protein expression level in MDA-MB-436 cells; type: cell-based; conditions: 24 hours
Method: (§1) MDA-MB-436 cells were placed in a complete DMEM medium (supplemented with 15% FBS; 10 μg/mL Insulin; 16 μg/mL Glutathione and 1% penicillin-streptomycin solution), and cultured at 37° C. under CO2-free conditions. The cells in the logarithmic growth phase were collected, the cell density was adjusted to 2×10^5 cells/well with the culture medium, and the cells were added to a 6-well cell culture plate at a volume of 1 mL/well. The compound to be tested was prepared to 2-fold the final concentration, 1 mL of the compounds at different concentrations were added to administration wells, a medium containing 0.2% DMSO was added to control wells, and the plate was incubated for 24 hours at 37° C. The cells were collected into a 1.5 mL centrifuge tube, 25 μL of RIPA lysis buffer (containing 1× protease inhibitor cocktail) was added, and the cells were lysed on ice for 15 minutes and centrifuged at 12000 rpm/min at 4° C. for 10 minutes. The supernatant was collected and the protein content was determined using the BCA method. The protein sample to be tested was diluted to 0.8 mg/mL, PARP1 was detected using a fully automated protein expression quantitative analyzer (ProteinSimple), and the internal reference protein was 3-actin (both antibodies were from CST). The software (Compass for SW) of the fully automated protein expression quantitative analyzer was used to process the raw data and calculate the peak area and the PARP1 expression rate relative to the control group.
as §1, with “L-15” for “DMEM”, “mL/well and cultured overnight. On day 2, the” for “mL/well. The”, “group. DC50 values were calculated using a four-parameter non-linear fitting model in Graphpad 8.3.0 software.” for “group.”

[4] = male, SD, rat, iv, i.v. 2.5 mg/kg, plasma

T1 sequence (P09874 whole entry): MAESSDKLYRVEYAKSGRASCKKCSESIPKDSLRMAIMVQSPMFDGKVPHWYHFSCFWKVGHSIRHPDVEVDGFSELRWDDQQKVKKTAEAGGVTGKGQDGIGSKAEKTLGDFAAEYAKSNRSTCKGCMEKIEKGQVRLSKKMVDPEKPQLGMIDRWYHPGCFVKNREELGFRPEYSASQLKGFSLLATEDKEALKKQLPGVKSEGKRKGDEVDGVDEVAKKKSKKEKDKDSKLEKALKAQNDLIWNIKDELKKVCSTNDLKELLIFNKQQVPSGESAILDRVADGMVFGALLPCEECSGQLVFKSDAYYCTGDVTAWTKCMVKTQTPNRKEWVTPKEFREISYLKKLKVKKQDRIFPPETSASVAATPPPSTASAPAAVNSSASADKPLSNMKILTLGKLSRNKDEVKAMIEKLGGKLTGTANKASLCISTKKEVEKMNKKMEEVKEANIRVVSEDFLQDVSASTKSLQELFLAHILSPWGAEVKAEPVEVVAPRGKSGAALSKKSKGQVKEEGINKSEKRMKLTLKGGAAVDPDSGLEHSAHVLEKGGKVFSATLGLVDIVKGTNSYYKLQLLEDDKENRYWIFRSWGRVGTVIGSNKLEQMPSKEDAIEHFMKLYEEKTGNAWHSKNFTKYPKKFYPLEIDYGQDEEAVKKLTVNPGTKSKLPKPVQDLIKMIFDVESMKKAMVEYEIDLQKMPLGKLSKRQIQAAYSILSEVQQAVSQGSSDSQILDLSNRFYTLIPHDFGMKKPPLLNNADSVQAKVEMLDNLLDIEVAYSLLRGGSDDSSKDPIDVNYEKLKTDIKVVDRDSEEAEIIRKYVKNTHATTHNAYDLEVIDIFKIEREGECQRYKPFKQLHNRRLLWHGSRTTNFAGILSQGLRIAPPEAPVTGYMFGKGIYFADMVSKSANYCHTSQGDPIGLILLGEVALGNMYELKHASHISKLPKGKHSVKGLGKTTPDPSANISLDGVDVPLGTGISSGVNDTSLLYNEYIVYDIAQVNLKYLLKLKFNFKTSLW

SMILES: CCc1cc2ncc(CN3CCN(c4ccc(C(=O)NC5CCN(c6ccc7c(c6)C(=O)N(C6CCC(=O)NC6=O)C7=O)CC5)nc4)CC3)cc2[nH]c1=O (stereo not shown) [Compound 10, N-(1-(2-(2,6-dioxopiperidin-3-yl)-1,3-dioxoisoindolin-5-yl)piperidin-4-yl)-5-(4-((7-ethyl-6-oxo-5,6-dihydro-1,5-naphthyridin-3-yl)methyl)piperazin-1-yl)picolinamide]
- pharmacokinetic characteristics [1]: good pharmacokinetic characteristics
- F ([1]; i.g. 10 mg/kg): 34.3%
- AUC(0-t) [1, 4]: 31200 ng·h/mL
- clearance [1, 4]: 1.42 mL/min/kg
- Vd ([1]; male, SD, rat, iv, i.v. 2.5 mg/kg, plasma, read-out: Vdss): 0.405 L/kg
- AUC(0-t) ([1]; male, SD, rat, po, i.g. 10 mg/kg, plasma): 42900 ng·h/mL
- IC50 (PARP1 [2]; PARP1 enzyme): 0.32 nM
- PARP1 inhibitory selectivity over PARP2 and PARP7 (PARP1 [2]; enzyme activities in vitro): good PARP1 inhibitory selectivity
- PARP1 degradation rate @ 100 nM (PARP1 [3]; 100 nM): 79%
- DC50 (PARP1 [3]): 0.014 nM
